This passage reports herbicidal activity results from US9549558B2, “Herbicidal azines” (BASF SE, priority 2012, dated 2017).

What all share (format): in vivo
Assay [1] concerns AMARE (Amaranthus retroflexus). The assay is described as follows: greenhouse pre-emergence herbicidal test. An excerpt:
(§1) The seeds of the test plants were sown separately for each species. For the pre-emergence treatment, the active ingredients, which had been suspended or emulsified in water, were applied directly after sowing by means of finely distributing nozzles. The containers were irrigated gently to promote germination and growth and subsequently covered with transparent plastic hoods until the plants had rooted. This cover caused uniform germination of the test plants, unless this had been impaired by the active ingredients. Depending on the species, the plants were kept at 10-25° C. or 20-35° C., respectively. The test period extended over 2 to 4 weeks. During this time, the plants were tended, and their response to the individual treatments was evaluated. […] A moderate herbicidal activity is given at values of at least 60, a good herbicidal activity is given at values of at least 70, and a very good herbicidal activity is given at values of at least 85. The plants used in the greenhouse experiments were of the following species: [table]

In assay [2] the test system is ABUTH (Abutilon theophrasti). Description: greenhouse pre-emergence herbicidal test.
Description: as §1

Assay [3] concerns AMARE (Amaranthus retroflexus). The assay is described as follows: greenhouse post-emergence herbicidal test. The conditions noted are these: 0.031 kg/ha. From the text:
(§2) The culture containers used were plastic flowerpots containing loamy sand with approximately 3.0% of humus as the substrate. The seeds of the test plants were sown separately for each species.
For the post-emergence treatment, the test plants were first grown to a height of 3 to 15 cm, depending on the plant habit, and only then treated with the active ingredients which had been suspended or emulsified in water. For this purpose, the test plants were either sown directly and grown in the same containers, or they were first grown separately as seedlings and transplanted into the test containers a few days prior to treatment.
(§3) Depending on the species, the plants were kept at 10-25° C. or 20-35° C., respectively.
(§4) The test period extended over 2 to 4 weeks. During this time, the plants were tended, and their response to the individual treatments was evaluated.
(§5) Evaluation was carried out using a scale from 0 to 100. 100 means no emergence of the plants, or complete destruction of at least the aerial moieties, and 0 means no damage, or normal course of growth. A moderate herbicidal activity is given at values of at least 60, a good herbicidal activity is given at values of at least 70, and a very good herbicidal activity is given at values of at least 85.
(§6) The plants used in the greenhouse experiments were of the following species: […]

In assay [4] the test system is ECHCG (Echinocloa crus-galli). The assay is described as follows: greenhouse pre-emergence herbicidal test.
Description: as §2
(§7) For the pre-emergence treatment, the active ingredients, which had been suspended or emulsified in water, were applied directly after sowing by means of finely distributing nozzles. The containers were irrigated gently to promote germination and growth and subsequently covered with transparent plastic hoods until the plants had rooted. This cover caused uniform germination of the test plants, unless this had been impaired by the active ingredients.
as §3, §4, §5, §6

The subject of a further assay is STEME (Stellaria media). Description: greenhouse pre-emergence herbicidal test.
Description: as §2, §7, §3, §4, §5, §6

The subject of assay [5] is CAPBP (Capsella bursa-pastoris). Description: greenhouse pre-emergence herbicidal test. The conditions noted are these: 0.125 kg/ha, CAPBP.
Description: as §2, §7, §3, §4, §5, §6

Consider `CCN(c1nc(N)nc(C(C)(C)F)n1)c1c(F)c(F)c(F)c(F)c1F` [Example 308], for which, in assay [1] (125 g/ha), the herbicidal activity entry is given as “very good (a very good herbicidal activity is given at values of at least 85)”. In the case of `CC(C)c1nc(N)nc(Nc2c(F)ccc(Cl)c2F)n1` [Example 67], the herbicidal activity entry in assay [1] (125 g/ha) is given as “very good (a very good herbicidal activity is given at values of at least 85)”; in assay [2] (125 g/ha), “good (a good herbicidal activity is given at values of at least 70)”. `CC(C)(F)c1nc(N)nc(Nc2c(F)cccc2Br)n1` [Example 31]: in assay [3], the herbicidal activity entry is on record as “very good (a very good herbicidal activity is given at values of at least 85)”.

On to `CCC(C)(Cl)c1nc(N)nc(Nc2c(F)c(F)c(Br)c(F)c2F)n1` (centres unmarked) [Example 195], for which the figures for the herbicidal activity entry in assay [4] (500 g/ha), in assay [1] (500 g/ha) and in assay [2] (500 g/ha) were “good (a good herbicidal activity is given at values of at least 70)”, “very good (a very good herbicidal activity is given at values of at least 85)” and “good (a good herbicidal activity is given at values of at least 70)”, respectively. `N#Cc1cccc(F)c1Nc1nc(N)nc(C(F)F)n1` [Example 149]: in the assay with STEME (Stellaria media) (250 g/ha), the herbicidal activity entry is reported as “good (a good herbicidal activity is given at values of at least 70)”. Take `CCC(C#N)(CC)c1nc(N)nc(Nc2c(F)c(F)cc(F)c2F)n1` [Example 219]: the herbicidal activity result in assay [1] (250 g/ha) and in assay [2] (250 g/ha) was “very good (a very good herbicidal activity is given at values of at least 85)” each time. Take `Cc1cccc(F)c1Nc1nc(N)nc(C(C)(C)F)n1` [Example 41]: in assay [1] (0.031 kg/ha), the herbicidal activity entry was “good (a good herbicidal activity is given at values of at least 70)”. Consider `CC(C)(C)c1nc(N)nc(Nc2c(F)cccc2C#N)n1` [Example 135], for which the herbicidal activity result in assay [4] (500 g/ha), in assay [1] (500 g/ha) and in assay [2] (500 g/ha) was “very good (a very good herbicidal activity is given at values of at least 85)” each time. In the case of `COc1ccc(F)c(Nc2nc(N)nc(C(C)(C)F)n2)c1F` [Example 43], the herbicidal activity result in assay [3] is “good (a good herbicidal activity is given at values of at least 70)”. Regarding `Nc1nc(Nc2c(F)c(F)c(F)c(F)c2F)nc(C(F)F)n1` [Example 121], the herbicidal activity result in assay [1] (250 g/ha) and in assay [2] (250 g/ha) was “very good (a very good herbicidal activity is given at values of at least 85)” in each case.

For `CC(C)(F)c1nc(N)nc(Nc2c(F)ccc([N+](=O)[O-])c2F)n1` [Example 189], the herbicidal activity entry in assay [4] (507 g/ha), in assay [1] (507 g/ha) and in assay [2] (507 g/ha) was “very good (a very good herbicidal activity is given at values of at least 85)” each time. Consider `CCCC(F)(CC)c1nc(N)nc(Nc2c(F)c(F)c(F)c(F)c2F)n1` (centres unmarked) [Example 50], for which the herbicidal activity entry (in assay [5]; in the assay with STEME (Stellaria media) (0.125 kg/ha)) was “very good (a very good herbicidal activity is given at values of at least 85)” in each case.

Turning to `Nc1nc(CF)nc(Nc2c(F)c(F)cc(F)c2F)n1` [Example 198], the herbicidal activity entry in assay [1] (119 g/ha) was “very good (a very good herbicidal activity is given at values of at least 85)”. On to `CC=C(C)c1nc(N)nc(Nc2c(F)cccc2F)n1` [Example 124], for which the herbicidal activity result in assay [4] (1000 g/ha), in assay [1] (1000 g/ha) and in assay [2] (1000 g/ha) was “very good (a very good herbicidal activity is given at values of at least 85)” in each case. As for `Cc1cc(C)cc(Oc2cccc(F)c2Nc2nc(N)nc(C(C)(C)F)n2)c1` [Example 191], the herbicidal activity entry in assay [4] (1000 g/ha), in assay [1] (1000 g/ha) and in assay [2] (1000 g/ha) was “very good (a very good herbicidal activity is given at values of at least 85)” throughout.

In the case of `CC(F)c1nc(N)nc(Nc2c(F)c(F)c(Br)c(F)c2F)n1` (centres unmarked) [Example 180], the herbicidal activity result in assay [1] (250 g/ha) and in assay [2] (250 g/ha) was “very good (a very good herbicidal activity is given at values of at least 85)” in each case. Turning to `COC(C)c1nc(N)nc(Nc2c(F)ccc(F)c2F)n1` (centres unmarked) [Example 228], the herbicidal activity entry in assay [1] (500 g/ha) and in assay [2] (500 g/ha) was “very good (a very good herbicidal activity is given at values of at least 85)” each time.

For the compound `CC(C#N)c1nc(N)nc(Nc2c(F)c(F)c(F)c(F)c2F)n1` (centres unmarked) [Example 5], the herbicidal activity entry in assay [1] (0.125 kg/ha) is recorded as “very good (a very good herbicidal activity is given at values of at least 85)”. With `COc1cccc(F)c1Nc1nc(N)nc(C(C)(C)F)n1` [Example 42], the herbicidal activity result in assay [1] (0.0625 kg/ha) is “very good (a very good herbicidal activity is given at values of at least 85)”. As to `Nc1nc(C2CCCC2)nc(N(C(=O)C2CCCC2)c2c(F)ccc(F)c2F)n1` [Example 302], the herbicidal activity result in assay [4] (1000 g/ha) is listed as “very good (a very good herbicidal activity is given at values of at least 85)”; in assay [1] (1000 g/ha), “very good (a very good herbicidal activity is given at values of at least 85)”; in assay [2] (1000 g/ha), “good (a good herbicidal activity is given at values of at least 70)”.

For the compound `Nc1nc(CC(F)(F)F)nc(Nc2c(F)c(F)c(F)c(F)c2F)n1` [Example 72], the herbicidal activity result in assay [1] (125 g/ha) and in assay [2] (125 g/ha) was “very good (a very good herbicidal activity is given at values of at least 85)” each time. Consider `Nc1nc(Nc2c(F)ccc(F)c2F)nc(C(F)F)n1` [Example 123], for which the results for the herbicidal activity result in assay [4] (250 g/ha), in assay [1] (250 g/ha) and in assay [2] (250 g/ha) were “good (a good herbicidal activity is given at values of at least 70)”, “very good (a very good herbicidal activity is given at values of at least 85)” and “good (a good herbicidal activity is given at values of at least 70)”, respectively.

Consider `CC(C)(F)c1nc(N)nc(Nc2c(Br)cc(F)c(F)c2F)n1` [Example 34], for which the herbicidal activity result (in assay [5]; in the assay on STEME (Stellaria media) (0.125 kg/ha)) was “very good (a very good herbicidal activity is given at values of at least 85)” in each case. With `CC=C(C)c1nc(N)nc(Nc2c(F)c(F)cc(F)c2F)n1` [Example 206], the herbicidal activity entry in assay [1] (500 g/ha) was “very good (a very good herbicidal activity is given at values of at least 85)”. Regarding `CCC(C)c1nc(N)nc(Nc2c(F)c(F)cc(F)c2F)n1` (centres unmarked) [Example 193], the herbicidal activity entry in assay [4] (500 g/ha), in assay [1] (500 g/ha) and in assay [2] (500 g/ha) was “very good (a very good herbicidal activity is given at values of at least 85)” throughout. On to `COc1cccc(OC)c1Nc1nc(N)nc(C(C)(C)F)n1` [Example 47], for which the herbicidal activity entry in assay [1] (0.125 kg/ha) is reported as “very good (a very good herbicidal activity is given at values of at least 85)”.

Regarding `CCOc1ccc(F)c(Nc2nc(N)nc(C(C)(C)F)n2)c1F` [Example 44], the herbicidal activity result in assay [1] (0.125 kg/ha) and in assay [2] (0.125 kg/ha) was “very good (a very good herbicidal activity is given at values of at least 85)” each time. For `CC(C)c1nc(N)nc(Nc2c(F)cccc2F)n1` [Example 66], the herbicidal activity entry in assay [1] (62.5 g/ha) is reported as “very good (a very good herbicidal activity is given at values of at least 85)”.
